tested on: HCV 1b genotype; assay: HCV Replicon assay (HCV 1b genotype); assay type: cell-based; conditions: Hepatitis C virus; HCV 1b genotype replicon; read-out: EC50
Protocol: An HCV Replicon assay was utilized in the present disclosure, and was prepared, conducted and validated as described in commonly owned PCT/US2006/022197 and in O'Boyle et al., Antimicrob. Agents Chemother., 49(4):1346-1353 (April 2005). Assay methods incorporating luciferase reporters have also been used as described (Apath.com).
HCV-neo replicon cells and replicon cells containing resistance substitutions in the NS5A region were used to test the currently described family of compounds. The compounds were determined to have differing degrees of reduced inhibitory activity on cells containing mutations vs. the corresponding inhibitory potency against wild-type cells. Thus, the compounds of the present disclosure can be effective in inhibiting the function of the HCV NS5A protein and are understood to be as effective in combinations as previously described in application PCT/US2006/022197 and commonly owned WO 04/014852. It should be understood that the compounds of the present disclosure can inhibit multiple genotypes of HCV. […] In one embodiment, compounds of the present disclosure are inhibitory versus 1a, 1b, 2a, 2b, 3a, 4a, and 5a genotypes.

Compound | EC50
COC(=O)N[C@H](C(=O)N1CCC[C@H]1c1nc2ccc(-c3ccc4cc(-c5ccc6nc([C@@H]7CCCN7C(=O)[C@@H](NC(=O)OC)C7CCOCC7)[nH]c6c5)ccc4c3)cc2[nH]1)C(C)C [Example 27, Methyl((1S)-2-((2S)-2-(5-(6-(2-((2S)-1-((2S)-2-((methoxycarbonyl)amino)-3-methylbutanoyl)-2-pyrrolidinyl)-1H-benzimidazol-5-yl)-2-naphthyl)-1H-benzimidazol-2-yl)-1-pyrrolidinyl)-2-oxo-1-(tetrahydro-2H-pyran-4-yl)ethyl)carbamate] | 0.00477 nM

same assay, conditions: Hepatitis C virus; HCV 1b genotype replicon; read-out: Range (EC50 values against HCV 1b)

Compound | EC50
COC(=O)N[C@H](C(=O)N1CCC[C@H]1c1nc2nc(-c3ccc4cc(-c5cnc6[nH]c([C@@H]7CCCN7C(=O)[C@@H](NC(=O)OC)C(C)C)nc6n5)ccc4c3)cnc2[nH]1)C(C)C [Example 24, Methyl((1S)-1-(((2S)-2-(5-(6-(2-((2S)-1-((2S)-2-((methoxycarbonyl)amino)-3-methylbutanoyl)-2-pyrrolidinyl)-1H-imidazo[4,5-b]pyrazin-5-yl)-2-naphthyl)-1H-imidazo[4,5-b]pyrazin-2-yl)-1-pyrrolidinyl)carbonyl)-2-methylpropyl)carbamate] | 0.0101 to 1 nM
COC(=O)N[C@H](C(=O)N1CCC[C@@H]1c1nc2nc(-c3ccc4cc(-c5cnc6[nH]c([C@@H]7CCCN7C(=O)[C@@H](NC(=O)OC)C(C)C)nc6n5)ccc4c3)cnc2[nH]1)C(C)C [Example 25A, Methyl((1S)-1-(((2S)-2-(5-(6-(2-((2R)-1-((2S)-2-((methoxycarbonyl)amino)-3-methylbutanoyl)-2-pyrrolidinyl)-1H-imidazo[4,5-b]pyrazin-5-yl)-2-naphthyl)-1H-imidazo[4,5-b]pyrazin-2-yl)-1-pyrrolidinyl)carbonyl)-2-methylpropyl)carbamate] | 1.01 to 1000 nM
COC(=O)N[C@H](C(=O)N1CCC[C@@H]1c1nc2nc(-c3ccc4cc(-c5cnc6[nH]c([C@H]7CCCN7C(=O)[C@@H](NC(=O)OC)C(C)C)nc6n5)ccc4c3)cnc2[nH]1)C(C)C [Example 25B, Methyl((1S)-1-(((2R)-2-(5-(6-(2-((2R)-1-((2S)-2-((methoxycarbonyl)amino)-3-methylbutanoyl)-2-pyrrolidinyl)-1H-imidazo[4,5-b]pyrazin-5-yl)-2-naphthyl)-1H-imidazo[4,5-b]pyrazin-2-yl)-1-pyrrolidinyl)carbonyl)-2-methylpropyl)carbamate] | 1.01 to 1000 nM
COC(=O)N[C@H](C(=O)N1CCC[C@H]1c1nc2ccc(-c3ccc4cc(-c5ccc6nc([C@@H]7CCCN7C(=O)[C@@H](NC(=O)OC)C7CCOCC7)[nH]c6c5)ccc4c3)cc2[nH]1)C1CCOCC1 [Example 26, Dimethyl(2,6-naphthalenediylbis(1H-benzimidazole-5,2-diyl(2S)-2,1-pyrrolidinediyl((1S)-2-oxo-1-(tetrahydro-2H-pyran-4-yl)-2,1-ethanediyl)))biscarbamate] | 0.0101 to 1 nM
COC(=O)N[C@H](C(=O)N1CCC[C@H]1c1ncc(-c2ccc3cc(-c4ccc5nc([C@@H]6CCCN6C(=O)[C@@H](NC(=O)OC)C6CCOCC6)[nH]c5c4)ccc3c2)[nH]1)C1CCOCC1 [Example 28, Methyl((1S)-2-((2S)-2-(4-(6-(2-((2S)-1-((2S)-2-((methoxycarbonyl)amino)-2-(tetrahydro-2H-pyran-4-yl)acetyl)-2-pyrrolidinyl)-1H-benzimidazol-5-yl)-2-naphthyl)-1H-imidazol-2-yl)-1-pyrrolidinyl)-2-oxo-1-(tetrahydro-2H-pyran-4-yl)ethyl)carbamate] | 0.0101 to 1 nM
COC(=O)N[C@H](C(=O)N1CCC[C@H]1c1ncc(C#Cc2ccc3cc(C#Cc4cnc([C@@H]5CCCN5C(=O)[C@@H](NC(=O)OC)C(C)C)[nH]4)ccc3c2)[nH]1)C(C)C [Example 31, Methyl((1S)-1-(((2S)-2-(4-((6-((2-((2S)-1-((2S)-2-((methoxycarbonyl)amino)-3-methylbutanoyl)-2-pyrrolidinyl)-1H-imidazol-4-yl)ethynyl)-2-naphthyl)ethynyl)-1H-imidazol-2-yl)-1-pyrrolidinyl)carbonyl)-2-methylpropyl)carbamate] | 0.0101 to 1 nM

Reference: patent publication US9006455B2 (Bristol-Myers Squibb Company, priority 2009, dated 2015)
